Assays:
Hepatotoxicity [1] = test system: Hepatotoxicity;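 for HepSE Combined Scores: combined hepatic side effect score as listed in the training data of the Drug Induced Liver Injury Prediction System (DILIps)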;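 for HepSE cholecystitis: Cholecystitis-related hepatic side effect score drawn from the DILIps (drug-induced liver injury prediction) training data set; call rule not given here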;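 for HepSE cirrhosis: cirrhosis hepatic side effect score taken from the DILIps (drug-induced liver injury prediction) training set; call rule not given here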;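 for HepSE elevated liver function tests: hepatic side effect score for raised liver function tests, as recorded in the DILIps training set used for predicting drug-induced liver injury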; for HepSE hepatic failure: call rule not given here;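 for HepSE jaundice: Jaundice-related hepatic side-effect score drawn from the training data of the DILIps (drug-induced liver injury prediction system); call rule not given here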;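 for HepSE liver fatty: hepatic side effect score for fatty liver, taken from the DILIps training set for predicting drug-induced liver injury; call rule not given here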
Hepatotoxicity [2] = test system: Hepatotoxicity; remark: listed apart in the source;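 for HepSE Combined Scores: combined hepatic side effect score as listed in the training data of the Drug Induced Liver Injury Prediction System (DILIps)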;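 for HepSE cholecystitis: Cholecystitis-related hepatic side effect score drawn from the DILIps (drug-induced liver injury prediction) training data set; call rule not given here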;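 for HepSE cirrhosis: cirrhosis hepatic side effect score taken from the DILIps (drug-induced liver injury prediction) training set; call rule not given here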;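 for HepSE elevated liver function tests: hepatic side effect score for raised liver function tests, as recorded in the DILIps training set used for predicting drug-induced liver injury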; for HepSE hepatic failure: call rule not given here;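 for HepSE jaundice: Jaundice-related hepatic side-effect score drawn from the training data of the DILIps (drug-induced liver injury prediction system); call rule not given here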;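 for HepSE liver fatty: hepatic side effect score for fatty liver, taken from the DILIps training set for predicting drug-induced liver injury; call rule not given here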
Hepatotoxicity [3] = test system: Hepatotoxicity; remark: listed apart in the source;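 for HepSE cholecystitis: Cholecystitis-related hepatic side effect score drawn from the DILIps (drug-induced liver injury prediction) training data set; call rule not given here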;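 for HepSE cirrhosis: cirrhosis hepatic side effect score taken from the DILIps (drug-induced liver injury prediction) training set; call rule not given here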;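 for HepSE elevated liver function tests: hepatic side effect score for raised liver function tests, as recorded in the DILIps training set used for predicting drug-induced liver injury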; for HepSE hepatic failure: call rule not given here;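 for HepSE jaundice: Jaundice-related hepatic side-effect score drawn from the training data of the DILIps (drug-induced liver injury prediction system); call rule not given here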;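 for HepSE liver fatty: hepatic side effect score for fatty liver, taken from the DILIps training set for predicting drug-induced liver injury; call rule not given here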
Hepatotoxicity [4] = test system: Hepatotoxicity; remark: listed apart in the source;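 for HepSE cholecystitis: Cholecystitis-related hepatic side effect score drawn from the DILIps (drug-induced liver injury prediction) training data set; call rule not given here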;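 for HepSE cirrhosis: cirrhosis hepatic side effect score taken from the DILIps (drug-induced liver injury prediction) training set; call rule not given here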;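 for HepSE elevated liver function tests: hepatic side effect score for raised liver function tests, as recorded in the DILIps training set used for predicting drug-induced liver injury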; for HepSE hepatic failure: call rule not given here;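 for HepSE jaundice: Jaundice-related hepatic side-effect score drawn from the training data of the DILIps (drug-induced liver injury prediction system); call rule not given here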;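 for HepSE liver fatty: hepatic side effect score for fatty liver, taken from the DILIps training set for predicting drug-induced liver injury; call rule not given here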
Hepatotoxicity [5] = test system: Hepatotoxicity; remark: listed apart in the source; for HepSE hepatic failure: call rule not given here
Hepatotoxicity [6] = test system: Hepatotoxicity; remark: listed apart in the source; for HepSE hepatic failure: call rule not given here
Hepatotoxicity [7] = test system: Hepatotoxicity; remark: listed apart in the source
Hepatotoxicity [8] = test system: Hepatotoxicity; remark: listed apart in the source
Hepatotoxicity [9] = test system: Hepatotoxicity; remark: listed apart in the source
Hepatotoxicity [10] = test system: Hepatotoxicity; remark: listed apart in the source
Hepatotoxicity [11] = test system: Hepatotoxicity; remark: listed apart in the source
Hepatotoxicity [12] = test system: Hepatotoxicity; remark: listed apart in the source
Hepatotoxicity [13] = test system: Hepatotoxicity; remark: listed apart in the source
Hepatotoxicity [14] = test system: Hepatotoxicity; remark: listed apart in the source

SMILES	HepSE_liver fatty (Hepatotoxicity [1])	HepSE_elevated liver function tests (Hepatotoxicity [2])	HepSE_jaundice (Hepatotoxicity [3])	HepSE_cirrhosis (Hepatotoxicity [4])	HepSE_cholecystitis (Hepatotoxicity [5])	HepSE_hepatic failure (Hepatotoxicity [6])	HepSE_Combined Scores (Hepatotoxicity [7])	HepSE_hepatitis (Hepatotoxicity [8])	HepSE_liver function tests abnormal (Hepatotoxicity [9])	HepSE_hepatic necrosis (Hepatotoxicity [10])	HepSE_cholelithiasis (Hepatotoxicity [11])	HepSE_hepatomegaly (Hepatotoxicity [12])	HepSE_liver disease (Hepatotoxicity [13])	HepSE_bilirubinemia (Hepatotoxicity [14])	also measured
OC(CNCC(O)C1CCc2cc(F)ccc2O1)C1CCc2cc(F)ccc2O1 (configuration not stated) [NEBIVOLOL]	0	0	0	0	0	0	0	0	0	0	0	0	0	0	
CCCc1c2oc(C(=O)[O-])cc(=O)c2cc2c(=O)cc(C(=O)[O-])n(CC)c12.[Na+].[Na+] [NEDOCROMIL SODIUM]	0	0	0	0	0	0	0	0	0	0	0	0	0	0	
CCc1nn(CCCN2CCN(c3cccc(Cl)c3)CC2)c(=O)n1CCOc1ccccc1 [NEFAZODONE]	0	0	0	0	0	0	3	1	1	1	0	0	0	0	
COc1nc(N)nc2c1ncn2[C@@H]1O[C@H](CO)[C@@H](O)[C@@H]1O [NELARABINE]	0	0	0	0	0	0	0	0	0	0	0	0	0	0	
Cc1ccnc2c1NC(=O)c1cccnc1N2C1CC1 [NEVIRAPINE]	0	0	1	0	0	1	6	1	1	1	0	0	1	0	
COC(=O)C1=C(C)NC(C)=C(C(=O)OCCN(C)Cc2ccccc2)C1c1cccc([N+](=O)[O-])c1 (configuration not stated) [NICARDIPINE]	0	0	0	0	0	0	0	0	0	0	0	0	0	0	
CN1CCC[C@H]1c1cccnc1 [NICOTINE]															HepSE_liver fatty (Hepatotoxicity [1]; Liver): 0; HepSE_elevated liver function tests (Hepatotoxicity [2]; Liver): 0; HepSE_jaundice (Hepatotoxicity [3]; Liver): 0; HepSE_cirrhosis (Hepatotoxicity [4]; Liver): 0; HepSE_cholecystitis (Hepatotoxicity [5]; Liver): 0; HepSE_hepatic failure (Hepatotoxicity [6]; Liver): 0; HepSE_Combined Scores (Hepatotoxicity [7]; Liver): 0; HepSE_hepatitis (Hepatotoxicity [8]; Liver): 0; HepSE_liver function tests abnormal (Hepatotoxicity [9]; Liver): 0; HepSE_hepatic necrosis (Hepatotoxicity [10]; Liver): 0; HepSE_cholelithiasis (Hepatotoxicity [11]; Liver): 0; HepSE_hepatomegaly (Hepatotoxicity [12]; Liver): 0; HepSE_liver disease (Hepatotoxicity [13]; Liver): 0; HepSE_bilirubinemia (Hepatotoxicity [14]; Liver): 0
COC(=O)C1=C(C)NC(C)=C(C(=O)OC)C1c1ccccc1[N+](=O)[O-] [NIFEDIPINE]	0	0	1	0	0	0	2	1	0	0	0	0	0	0	
CC1(C)NC(=O)N(c2ccc([N+](=O)[O-])c(C(F)(F)F)c2)C1=O [NILUTAMIDE]															HepSE_liver fatty (Hepatotoxicity [1]; Liver): 0; HepSE_elevated liver function tests (Hepatotoxicity [2]; Liver): 0; HepSE_jaundice (Hepatotoxicity [3]; Liver): 0; HepSE_cirrhosis (Hepatotoxicity [4]; Liver): 0; HepSE_cholecystitis (Hepatotoxicity [5]; Liver): 0; HepSE_hepatic failure (Hepatotoxicity [6]; Liver): 0; HepSE_Combined Scores (Hepatotoxicity [7]; Liver): 1; HepSE_hepatitis (Hepatotoxicity [8]; Liver): 1; HepSE_liver function tests abnormal (Hepatotoxicity [9]; Liver): 0; HepSE_hepatic necrosis (Hepatotoxicity [10]; Liver): 0; HepSE_cholelithiasis (Hepatotoxicity [11]; Liver): 0; HepSE_hepatomegaly (Hepatotoxicity [12]; Liver): 0; HepSE_liver disease (Hepatotoxicity [13]; Liver): 0; HepSE_bilirubinemia (Hepatotoxicity [14]; Liver): 0
COCCOC(=O)C1=C(C)NC(C)=C(C(=O)OC(C)C)C1c1cccc([N+](=O)[O-])c1 (configuration not stated) [NIMODIPINE]	0	0	1	0	0	0	2	1	0	0	0	0	0	0	
O=C1CN=C(c2ccccc2)c2cc([N+](=O)[O-])ccc2N1 [NITRAZEPAM]	0	0	0	0	0	0	0	0	0	0	0	0	0	0	
[N]=O [NITRIC OXIDE]	0	0	0	0	0	0	0	0	0	0	0	0	0	0	
O=C1CN(/N=C/c2ccc([N+](=O)[O-])o2)C(=O)N1 [NITROFURANTOIN]															HepSE_liver fatty (Hepatotoxicity [1]; Liver): 0; HepSE_elevated liver function tests (Hepatotoxicity [2]; Liver): 0; HepSE_jaundice (Hepatotoxicity [3]; Liver): 1; HepSE_cirrhosis (Hepatotoxicity [4]; Liver): 0; HepSE_cholecystitis (Hepatotoxicity [5]; Liver): 0; HepSE_hepatic failure (Hepatotoxicity [6]; Liver): 0; HepSE_Combined Scores (Hepatotoxicity [7]; Liver): 3; HepSE_hepatitis (Hepatotoxicity [8]; Liver): 1; HepSE_liver function tests abnormal (Hepatotoxicity [9]; Liver): 0; HepSE_hepatic necrosis (Hepatotoxicity [10]; Liver): 1; HepSE_cholelithiasis (Hepatotoxicity [11]; Liver): 0; HepSE_hepatomegaly (Hepatotoxicity [12]; Liver): 0; HepSE_liver disease (Hepatotoxicity [13]; Liver): 0; HepSE_bilirubinemia (Hepatotoxicity [14]; Liver): 0
O=[N+]([O-])OCC(CO[N+](=O)[O-])O[N+](=O)[O-] [NITROGLYCERIN]	0	0	0	0	0	0	0	0	0	0	0	0	0	0	
CNC(=C[N+](=O)[O-])NCCSCc1csc(CN(C)C)n1 [NIZATIDINE]	0	0	1	0	0	0	2	1	0	0	0	0	0	0	
NC[C@H](O)c1ccc(O)c(O)c1 [NOREPINEPHRINE]	0	0	0	0	0	0	0	0	0	0	0	0	0	0	
CCn1cc(C(=O)O)c(=O)c2cc(F)c(N3CCNCC3)cc21 [NORFLOXACIN]															HepSE_liver fatty (Hepatotoxicity [1]; Liver): 0; HepSE_elevated liver function tests (Hepatotoxicity [2]; Liver): 1; HepSE_jaundice (Hepatotoxicity [3]; Liver): 1; HepSE_cirrhosis (Hepatotoxicity [4]; Liver): 0; HepSE_cholecystitis (Hepatotoxicity [5]; Liver): 0; HepSE_hepatic failure (Hepatotoxicity [6]; Liver): 1; HepSE_Combined Scores (Hepatotoxicity [7]; Liver): 5; HepSE_hepatitis (Hepatotoxicity [8]; Liver): 1; HepSE_liver function tests abnormal (Hepatotoxicity [9]; Liver): 0; HepSE_hepatic necrosis (Hepatotoxicity [10]; Liver): 1; HepSE_cholelithiasis (Hepatotoxicity [11]; Liver): 0; HepSE_hepatomegaly (Hepatotoxicity [12]; Liver): 0; HepSE_liver disease (Hepatotoxicity [13]; Liver): 0; HepSE_bilirubinemia (Hepatotoxicity [14]; Liver): 0
CNCCC=C1c2ccccc2CCc2ccccc21 [NORTRIPTYLINE]															HepSE_liver fatty (Hepatotoxicity [1]; Liver): 0; HepSE_elevated liver function tests (Hepatotoxicity [2]; Liver): 0; HepSE_jaundice (Hepatotoxicity [3]; Liver): 1; HepSE_cirrhosis (Hepatotoxicity [4]; Liver): 0; HepSE_cholecystitis (Hepatotoxicity [5]; Liver): 0; HepSE_hepatic failure (Hepatotoxicity [6]; Liver): 0; HepSE_Combined Scores (Hepatotoxicity [7]; Liver): 3; HepSE_hepatitis (Hepatotoxicity [8]; Liver): 1; HepSE_liver function tests abnormal (Hepatotoxicity [9]; Liver): 0; HepSE_hepatic necrosis (Hepatotoxicity [10]; Liver): 1; HepSE_cholelithiasis (Hepatotoxicity [11]; Liver): 0; HepSE_hepatomegaly (Hepatotoxicity [12]; Liver): 0; HepSE_liver disease (Hepatotoxicity [13]; Liver): 0; HepSE_bilirubinemia (Hepatotoxicity [14]; Liver): 0
